In BindingDB's records for doi:10.1080/14756360109162352 (Universit&Agrave, 2001):

molecular target: T1, Neutrophil elastase (Homo sapiens, UniProt P08246); assay: Enzyme Assay; conditions: 25 °C
T1 sequence (P08246 whole entry): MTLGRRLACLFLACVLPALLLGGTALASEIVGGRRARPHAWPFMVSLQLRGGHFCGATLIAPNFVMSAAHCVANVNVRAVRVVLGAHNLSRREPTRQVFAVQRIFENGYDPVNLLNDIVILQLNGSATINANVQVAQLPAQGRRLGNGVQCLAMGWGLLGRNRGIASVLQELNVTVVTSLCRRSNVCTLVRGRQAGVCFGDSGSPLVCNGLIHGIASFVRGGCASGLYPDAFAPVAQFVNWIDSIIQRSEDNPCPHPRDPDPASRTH
Description: The enzyme were assayed spectrophotometrically at 410nm with p-nitroanilide substrates at 25 C.

Point of comparison: `CCc1nn(C)c2c1NOC(=O)N2` [Pyrazolooxadiazinone, 2j], Ki 199 µM. Against it:
- Cc1nn(-c2ccccc2)c2c1NOC(=O)N2 [Pyrazolooxadiazinone, 2a] — 2.1-fold lower, 94 µM
- Cc1nn(C)c2c1NOC(=O)N2 [Pyrazolooxadiazinone, 2b] — within 1.5-fold, 207 µM
- Cc1nn(-c2ccc(Cl)cc2)c2c1NOC(=O)N2 [Pyrazolooxadiazinone, 2c] — 2.3-fold lower, 87 µM
- Cc1nn(-c2ccccc2[N+](=O)[O-])c2c1NOC(=O)N2 [Pyrazolooxadiazinone, 2g] — higher, > 8400 µM
- Cc1nn(-c2cccc([N+](=O)[O-])c2)c2c1NOC(=O)N2 [Pyrazolooxadiazinone, 2h] — higher, > 8400 µM
- CCCCc1nn(C)c2c1NOC(=O)N2 [Pyrazolooxadiazinone, 2l] — 1.8-fold lower, 113 µM
